“Also recorded” adds a separate entry of the source. Where no end group is shown, it is not given here.
Legend:
[1] = tested on: Fusarium graminearum spores; assay type: cell-based
F. graminearum mycelia = assay type: cell-based, Fusarium graminearum
F. oxysporum mycelia = assay type: cell-based, Fusarium oxysporum
Escherichia coli = assay type: cell-based
Aspergillus niger spores = assay type: cell-based; parameters: key: an N indicates that no activity was observed
[2] = tested on: Fusarium oxysporum spores; assay type: cell-based
Ascochyta rabiei spores = assay type: cell-based
[3] = tested on: Leptosphaeria maculans spores; assay type: cell-based
Micrococcus luteus = assay type: cell-based
[4] = tested on: Colletotrichum gloeosporioides spores; assay type: cell-based; parameters: key: an N indicates that no activity was observed
C. parapsilosis = test: NCCLS M27-A2 microbroth dilution method; assay type: cell-based; conditions: synthetic peptide, tested at 0.125-64 μg/ml
Method: (§1) Synthetic Gm-moricinA was also tested against six yeast species using the NCCLS M27-A2 microbroth dilution method at the Women's and Children's Hospital (Adelaide, Australia). The yeasts tested were Candida albicans, C. parapsilosis, C. glabrata, C. krusei, C. tropicalis and Cryptococcus neoformans. The peptide was tested at 0.125-64 μg/ml, with each yeast species tested in duplicate. Trays were read at 24, 48 or 72 hours as appropriate.

C. glabrata = test: NCCLS M27-A2 microbroth dilution method; assay type: cell-based; conditions: synthetic peptide, tested at 0.125-64 μg/ml
Method: as §1

Cryptococcus neoformans = test: NCCLS M27-A2 microbroth dilution method; assay type: cell-based; conditions: synthetic peptide; C. neoformans; tested at 0.125-64 μg/ml
Method: as §1

Candida albicans = test: NCCLS M27-A2 microbroth dilution method; assay type: cell-based; conditions: synthetic peptide; C. albicans; tested at 0.125-64 μg/ml; read at 24, 48 or 72 hours
Method: as §1

C. tropicalis = test: NCCLS M27-A2 microbroth dilution method; assay type: cell-based; conditions: synthetic peptide, tested at 0.125-64 μg/ml
Method: as §1

C. krusei = test: NCCLS M27-A2 microbroth dilution method; assay type: cell-based; conditions: synthetic peptide, tested at 0.125-64 μg/ml
Method: as §1

Substance | lowest concentration at which activity was observed in the zone inhibition assay, Fgr [1] [µM] | lowest concentration at which activity was observed in the zone inhibition assay, Fgm (F. graminearum mycelia) [µM] | lowest concentration at which activity was observed in the zone inhibition assay, Fom (F. oxysporum mycelia) [µM] | lowest concentration at which activity was observed in the zone inhibition assay, Eco (Escherichia coli) [µM] | lowest concentration at which activity was observed in the zone inhibition assay, Ani (Aspergillus niger spores) | lowest concentration at which activity was observed in the zone inhibition assay, Fox [2] [µM] | lowest concentration at which activity was observed in the zone inhibition assay, Ara (Ascochyta rabiei spores) [µM] | lowest concentration at which activity was observed in the zone inhibition assay, Lma [3] [µM] | lowest concentration at which activity was observed in the zone inhibition assay, Mlu (Micrococcus luteus) [µM] | lowest concentration at which activity was observed in the zone inhibition assay, Cgl [4] | activity against F. graminearum [1] | activity against A. rabiei (Ascochyta rabiei spores) | activity against L. maculans [3] | MIC90 (C. parapsilosis) [µg/mL] | MIC90 (C. glabrata) [µg/mL] | MIC90 (Cryptococcus neoformans) [µg/mL] | MIC90 (Candida albicans) [µg/mL] | MIC90 (C. tropicalis) [µg/mL] | MIC90 (C. krusei) [µg/mL]
Bm-moricin: Synthetic B. mori moricin (residues 25 to 66 of SEQ ID NO:16) (AKIPIKAIKTVGKAVGKGLRAINIASTANDVFNFLKPKKRKH; listed as Bombyx mori) [reference compound] | 10 | 180 | 100 | 10 | N | 100 | 100 | 100 | 10 | N |  |  |  |  |  |  |  |  | 
Gm-moricinB: Antifungal moricin-like peptide from Galleria mellonella, SEQ ID NO:5 (GGQIIGKALRGINIASTAHDIISQFKPKKKKNH; listed as Galleria mellonella) | 10 | 280 | 280 | 100 | N | 100 |  | 100 | 100 | N | showed activity |  |  |  |  |  |  |  | 
Gm-moricinC1: Antifungal moricin-like peptide purified from Galleria mellonella hemolymph, SEQ ID NO:48 (KVPIGAIKKGGKIIKKGLGVIGAAGTAHEVYSHVKNRH; listed as Galleria mellonella) |  |  |  |  |  |  |  |  |  |  | had activity |  |  |  |  |  |  |  | 
Gm-moricinC2: Moricin-like peptide from Galleria mellonella, SEQ ID NO:53, synthesised (KVPIGAIKKGGKIIKKGLGVLGAAGTAHEVYNHVRNRQ; listed as Galleria mellonella) | 1 | 10 | 10 | 10 | N |  |  | 10 | 100 |  |  |  |  |  |  |  |  |  | 
KVNVNAIKKGGKAIGKGFKVISAASTAHDVYEHIKNRRH [Gm-moricinA] | 1 | 100 | 10 | 10 | N | 10 | 1 | 10 | 10 | N | had activity; also recorded: showed activity | showed activity | showed activity | 4.0 | 64.0 | 4.0 | 64.0 | 4.0 | 8.0
